In patent publication US20240182513A1, “SEPARATION OF METAL IONS FROM A SAMPLE USING GLYCOLIPIDS” (ARIZONA BOARD OF REGENTS ON BEHALF OF THE UNIVERSITY OF …, priority 2021, published 2024):

Columns and labels:
[1] = Example 2.2 glycolipid facilitated chemical precipitation: lanthanum
Protocol: (§1) Nine different structural variants were selected to examine the effect of the headgroup and number and length of the hydrophobic tail(s) on glycolipids as a chemical precipitant (Table 6). These solutions were made in advance and stored at 4° C. for up to one month and brought to room temperature (˜25° C.) before each experiment.
(§2) Each metal (Pb^2+, La^3+, and Mg^2+) was evaluated separately with each of the nine glycolipids. […] The reactions were mixed in the order of nanopure water (≥18 MΩ-cm), glycolipid solution, then metal solution. The metal and glycolipid solutions were continuously stirred as they were aliquoted into the reaction tubes. All experiments were performed in triplicate.
The reaction tubes were rotated overnight (16 to 24 h) and then three samples were collected from each tube to measure metal removal from solution: (1) no further treatment; (2) an additional filtration step; and (3) an additional centrifugation step. Briefly, for the glycolipid adsorption treatment samples all tubes were vortexed for approximately 5 sec immediately before sampling to ensure that non-adsorbed glycolipid-metal complexes were mixed into the solution column. After mixing, 0.1 ml of the reaction solution was aliquoted into a dilution tube of 2% trace metal grade nitric acid for analysis. […]
(§3) Samples for the filtration treatment were vortexed for 5 sec, then a 0.6 ml aliquot was collected with a 1 ml syringe. […] Following collection, the metal content in all samples was analyzed at the Arizona Laboratory for Emerging Contaminants (ALEC) at the University of Arizona using inductively coupled plasma mass spectrometry.
(§4) R was determined by comparing the solution metal concentration of the treatment sample (Cnt for the glycolipid with no further treatment sample, Cf for the glycolipid and filtration sample, and Cc for the glycolipid and centrifugation sample) to the solution metal concentration of a glycolipid-free control (Ci) that underwent the same handling and processing steps. […]

[2] = Example 2.2 glycolipid facilitated chemical precipitation: lead; conditions: for Pb^2+ maximum removal: precipitation without further treatment, maximum over molar ratios
Protocol: as §1, §2
The reaction tubes were rotated overnight (16 to 24 h) and then three samples were collected from each tube to measure metal removal from solution: (1) no further treatment; (2) an additional filtration step; and (3) an additional centrifugation step. Briefly, for the glycolipid adsorption treatment samples all tubes were vortexed for approximately 5 sec immediately before sampling to ensure that non-adsorbed glycolipid-metal complexes were mixed into the solution column. After mixing, 0.1 ml of the reaction solution was aliquoted into a dilution tube of 2% trace metal grade nitric acid for analysis. This sample measures the loss of metal due to the formation of hydrophobic scums or adsorbed complexes not attributable to the subsequent filtration or centrifugation treatments.
Samples for the filtration treatment were vortexed for 5 sec, then a 0.6 ml aliquot was collected with a 1 ml syringe. A GHP acrodisc disk filter (hydrophilic polypropylene membrane, 0.45 µm pore size, 25 mm disc diameter) from Pall Life Sciences (Port Washington, New York) or PTFE disk filters (hydrophobic polytetrafluoroethylene membrane, 0.45 μm pore size, 25 mm disc diameter) from Fisher Scientific (Waltham, MA) was then placed onto the end of the syringe and approximately 0.1 ml of filtrate was collected into a dilution tube for analysis. The centrifuge sample was collected by centrifuging the remaining reaction solution at 10,000 RCF for 15 min. Approximately 0.1 ml of the supernatant was aliquoted into a dilution tube for analysis. Following collection, the metal content in all samples was analyzed at the Arizona Laboratory for Emerging Contaminants (ALEC) at the University of Arizona using inductively coupled plasma mass spectrometry.
as §4, with “steps. The equations for these calculations are shown below:” for “steps.”

[3] = Example 2.2 glycolipid facilitated chemical precipitation: magnesium
Protocol: as §1, with “Surfactants: Each of the solutions were made by dissolving a single glycolipid (GlycoSurf Inc., Salt Lake City, >95% purity) in nanopure water (≥18 MΩ-cm) then adjusting the pH to 6.90±0.05 with HNO3 and NaOH. Nine” for “Nine”
Metals: Three metals were tested for binding with the glycolipids: lead as […] (Fisher Scientific, Waltham, MA, 99% purity), lanthanum as La(NO3)3 6(H2O) (Sigma-Aldrich, St. Louis, MO, 99.99% purity), and magnesium as Mg(NO3)2 6(H2O) (Sigma-Aldrich, St. Louis, MO, 99% purity. Metal solutions (5 mM) were made using nanopure water (≥18 MΩ-cm) and were not pH balanced.
Each metal (Pb^2+, La^3+, and Mg^2+) was evaluated separately with each of the nine glycolipids. […]
as §3
as §4, with “Calculations: The efficiency of metal removal (R) was determined for each of the three treatments: Ra for the active mixing/adsorption treatment, Rf for the glycolipid and filtration treatment, and Rc for the glycolipid and centrifugation treatment. R” for “R”

[4] = Ion flotation of uranium from Monument Valley groundwater with rhamnolipid collectors; conditions: pH 6.5
Text: Groundwater Collection and Analysis: The Monument Valley site is in Cane Valley, AZ, which is in northeastern Arizona. Groundwater was collected from monitoring well 662, which is down gradient of the source zone within the boundaries of the uranium groundwater plume. Samples were collected using dedicated bladder pumps and a QED Micropurge Controller. Groundwater was collected into a 50 L LDPE carboy (Thermo Scientific Nalgene) after the groundwater's pH and dissolved oxygen levels from the pump stabilized. The solution was stored as received, on the lab bench at ambient temperature until use.
For cation and anion analysis, groundwater was filtered ([…]) then diluted with 2% trace metals grade nitric acid (Fisher Scientific, Waltham, MA) in metal-free polypropylene 15 mL centrifuge tubes (VWR, Radnor, PA). Cations were analyzed using an Elan DRC-II inductively coupled plasma mass spectrometer (ICP-MS). Anions (F^−1, Cl^−1, Br^−1, NO2^−1, NO3^−1, […], and SO4^−2) were analyzed by using a Thermo Scientific Dionex ICS-6000 high-performance ion chromatography system. Data generated in this geochemical analysis were used to model uranium speciation using Visual MINTEQ 3.1. Only major solution constituents—those greater than 10 μg L^−1 for metals or 5 μmol L^−1 for anions—were included in the experiment, and carbonates were excluded because they are stripped from solution when nitrogen is sparged in the flotation process.
Chemicals: Both biosynthetic and synthetic monorhamnolipid collectors were tested for flotation efficiency. Biosynthetic monorhamnolipid tail lengths ‘m’ and ‘n’ range from 4 to 12 due to natural congener variation. Synthetic monorhamnolipids (Rha-C10-C10, Rha-C12-C12, or Rha-C14-C14) were synthesized with equal length tails where ‘m’=‘n’=6-14. The production and purification of biosynthetic monorhamnolipids (bio-mRL) from Pseudomonas aeruginosa ATCC 9027 has been previously described by Hogan et al., J. Hazard. Mater. 2017, 340, pp. 171-178. This organism exclusively produces monorhamnolipids—rhamnolipids with a single rhamnose sugar in the hydrophilic moiety of the molecule—as a congener mixture with varying hydrophobic tail lengths, in which the rhamnosyl-β-hydroxydecanoyl-β-hydroxydecanoate (C10-C10) dominates at 75-85 wt %. A molecular weight of 504 g mol^−1 (based on the C10-C10 structure) was used to estimate the bio-mRL concentration. Synthetic monorhamnolipids with decyl (Rha-C10-C10), dodecyl (Rha-C12-C12), and tetradecyl (Rha-C14-C14) hydrophobic moieties were prepared for comparative experiment. The molecular weights of the synthetic monorhamnolipids are 504.7, 560.8, and 616.9, respectively. All solutions were made using nanopure water (≥18 MΩ-cm). pH was adjusted with HNO3 and NaOH. […]

[5] = precipitation without further treatment, 5:1 ratio
[6] = precipitation followed by centrifugation, molar ratio not stated / over ratios
[7] = precipitation without further treatment, molar ratio not stated

In the case of `CCCCCCCCCCCC(CC(=O)O)OC1O[C@H](CO)[C@H](O)[C@H](O)[C@H]1O` (stereo partly drawn) [Gal-C14], the “La^3+ removal” value [1, 5] is reported as 57.9%, the “Pb^2+ maximum removal” value [2] is reported as 1.5% and the “Mg^2+ removal” value [3, 5] is reported as 11.6%.

In the case of `CCCCCCCC(CC(=O)O)OC1OC[C@@H](O)[C@H](O)[C@H]1O` (stereo partly drawn) [Xyl-C10], the “La^3+ removal” value [1, 6] is reported as no more than 30%, the “Pb^2+ removal” value [2, 6] is reported as no more than 30% and the “Pb^2+ maximum removal” value [2] is reported as “approximately 30%”. The “Mg^2+ removal” value [3, 6] was no more than 30%.

In the case of `CCCCCCCCCCCC(CC(=O)O)OC(=O)CC(CCCCCCCCCCC)OC1OC[C@@H](O)[C@H](O)[C@H]1O` (stereo partly drawn) [Xyl-C14-C14], the “Pb^2+ maximum removal” value [2] is reported as “approximately 30%” and the “Mg^2+ removal” value [3, 7] is reported as 17.1%.

For `CCCCCCCCCCCC(CC(=O)O)OC1OC[C@@H](O)[C@H](O)[C@H]1O` (stereo partly drawn) [Xyl-C14], the “La^3+ removal” value [1, 7] was 42.6% and the “Pb^2+ maximum removal” value [2] was less than 7%.

In the case of `CCCCCCCC(CC(=O)O)OC(=O)CC(CCCCCCC)O[C@@H]1OC(C)[C@H](O)C(O)C1O[C@@H]1OC(C)[C@H](O)C(O)C1O` (stereo partly drawn) [dirhamnolipid], the uranium removal percentage [4] is reported as “about 75%”.
